Measurements reported in patent US12398111B2, “Triazine compounds and pharmaceutical use thereof” (Japan Tobacco Inc., priority 2014, dated 2025).

Assays:
human mPGES-1 = biological target: T1, human mPGES-1 (Homo sapiens, UniProt O14684); assay: Evaluation of human mPGES-1 enzyme inhibitory activity (PGE2 measured by HTRF, microsome fraction of CHO-S cells expressing human mPGES-1); assay type: biochemical; conditions: IC50 value; microsome fraction of CHO-S cells expressing human mPGES-1, PGE2 by HTRF
T1 construct: made in house; host or cells: FreeStyle CHO-S cells (Chinese hamster ovary), transient transfection with pcDNA3.1(+)/human mPGES-1; microsome fraction used
T1 sequence (O14684 1-152): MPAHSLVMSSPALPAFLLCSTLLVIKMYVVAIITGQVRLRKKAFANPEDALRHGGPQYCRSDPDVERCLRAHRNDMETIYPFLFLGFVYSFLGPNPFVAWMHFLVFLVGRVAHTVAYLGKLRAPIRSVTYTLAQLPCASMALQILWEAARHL
Procedure, shortened: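 Enzyme source: microsomes from CHO-S cells transfected with human mPGES-1 and cultured 48 hr, diluted to 5 μg/mL protein in reduced GSH (12.5 mmol/L KPB solution). Test articles were in 0.1 mol/L potassium phosphate pH 7.4, final DMSO 2% (v/v). PGE2 formed was quantified by HTRF.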

[1] = tested on: prostaglandins in guinea pig secondary aqueous humor; assay: Effect on prostaglandin composition in guinea pig aqueous humor (instillation of 0.003% ophthalmic solution, LC/MS/MS); assay type: in vivo, Hartley male guinea pig; conditions: 24 hr after instillation of 0.003% ophthalmic solution
Description: A test article was dissolved in saline containing 0.5% polysorbate80 (Fluka) and 0.003% ophthalmic solution (pH 7.0-8.0) was prepared. The test article was administered to Hartley male guinea pig by instillation of 20 μL thereof to one eye by using a micropipette. After instillation, the lacrimal part was lightly fixed by gently pressing the lower eyelid for about 15 seconds. The opposite eye was treated in the same manner. To the vehicle group was administered the medium (0.5% polysorbate-containing saline) by a method similar to that for the test article. After 23 hr from the instillation, Mydrin P (registered trade mark) 0.5% ophthalmic solution (Santen Pharmaceutical Co., Ltd., general name: tropicamide/phenylephrine hydrochloride) was dropwisely added by one drop to the both eyes of a guinea pig to cause mydriasis. The guinea pig was anesthetized with Escain (registered trade mark) inhalation anesthetics (Pfizer Inc., general name: isoflurane), the cornea of the both eyes was tapped with a 30G injection needle, and the leaked aqueous humor (primary aqueous humor) was collected. One hour later (24 hr after instillation), the guinea pig was anesthetized again with isoflurane, and the secondary aqueous humor was collected in the same manner. The concentration of prostaglandins in the secondary aqueous humor obtained from each group (4 guinea pigs, 8 eyes) was measured by the LC/MS/MS system (Ultra high performance liquid chromatography: Nexera (registered trademark) manufactured by Shimadzu Corporation, mass spectrometer: […]), and the concentration ratio of each prostaglandin concentration relative to the total of all prostaglandin concentrations was calculated.

CC(C)c1cc(-c2nc(O)nc(-c3cc(CNC(=O)C(C)(C)C(F)(F)F)ccc3Cl)n2)ccc1C(F)(F)F [Example 1-130, N-{4-chloro-3-[4-hydroxy-6-(3-isopropyl-4-trifluoromethylphenyl)-1,3,5-triazin-2-yl]benzyl}-3,3,3-trifluoro-2,2-dimethylpropionamide]
IC50 (human mPGES-1): 9 nM | 6-keto-PGF1α (%) [1]: 11.2% | PGD2 (%) [1]: 6.2% | PGE2 (%) [1]: 73.6% | PGF2α (%) [1]: 8% | TXB2 (%) [1]: 1%

CCCCOc1ccc(-c2nc(O)nc(-c3cc(CNC(=O)C(C)(C)C(F)(F)F)ccc3Cl)n2)cc1 [Example 1-131, N-{3-[4-(4-butoxyphenyl)-6-hydroxy-1,3,5-triazin-2-yl]-4-chlorobenzyl}-3,3,3-trifluoro-2,2-dimethylpropionamide]
IC50 (human mPGES-1): 0.9 nM | 6-keto-PGF1α (%) [1]: 27.9% | PGD2 (%) [1]: 18.8% | PGE2 (%) [1]: 42.9% | PGF2α (%) [1]: 9.8% | TXB2 (%) [1]: 0.6%

CC(C)(C(=O)NCc1ccc(Cl)c(-c2nc(O)nc(-c3ccc(F)c(C4CC4)c3)n2)c1)C(F)(F)F [Example 1-135, N-{4-chloro-3-[4-(3-cyclopropyl-4-fluorophenyl)-6-hydroxy-1,3,5-triazin-2-yl]benzyl}-3,3,3-trifluoro-2,2-dimethylpropionamide]
IC50 (human mPGES-1): 0.5 nM | 6-keto-PGF1α (%) [1]: 19.4% | PGD2 (%) [1]: 10.9% | PGE2 (%) [1]: 56.1% | PGF2α (%) [1]: 12.7% | TXB2 (%) [1]: 0.9%

CO[C@](C)(C(=O)NCc1ccc(Cl)c(-c2nc(O)nc(-c3ccc(Cl)c(C)c3)n2)c1)C(F)(F)F [Example 1-136, (R)—N-{4-chloro-3-[4-(4-chloro-3-methylphenyl)-6-hydroxy-1,3,5-triazin-2-yl]benzyl}-3,3,3-trifluoro-2-methoxy-2-methylpropionamide]
IC50 (human mPGES-1): 0.5 nM | 6-keto-PGF1α (%) [1]: 17.3% | PGD2 (%) [1]: 7.4% | PGE2 (%) [1]: 66.7% | PGF2α (%) [1]: 7.9% | TXB2 (%) [1]: 0.7%

CCCOc1ccc(-c2nc(O)nc(-c3cc(CNC(=O)[C@@](C)(OC)C(F)(F)F)ccc3Cl)n2)cc1 [Example 1-137, (R)—N-{4-chloro-3-[4-hydroxy-6-(4-propoxyphenyl)-1,3,5-triazin-2-yl]benzyl}-3,3,3-trifluoro-2-methoxy-2-methylpropionamide]
IC50 (human mPGES-1): 0.5 nM | 6-keto-PGF1α (%) [1]: 24.8% | PGD2 (%) [1]: 14.1% | PGE2 (%) [1]: 49.5% | PGF2α (%) [1]: 11.3% | TXB2 (%) [1]: 0.3%

Cc1ccc(-c2nc(O)nc(-c3cc(CNC(=O)C(C)(C)C(F)(F)F)ccc3Cl)n2)cc1C [Example 1-150, N-{4-chloro-3-[4-(3,4-dimethylphenyl)-6-hydroxy-1,3,5-triazin-2-yl]benzyl}-3,3,3-trifluoro-2,2-dimethylpropionamide]
IC50 (human mPGES-1): 0.4 nM | 6-keto-PGF1α (%) [1]: 14% | PGD2 (%) [1]: 8% | PGE2 (%) [1]: 69% | PGF2α (%) [1]: 8.9% | TXB2 (%) [1]: 0.2%

CC(C(=O)NCc1ccc(Cl)c(-c2nc(O)nc(-c3ccc(OCC4CC4)cc3)n2)c1)(C(F)(F)F)C(F)(F)F [Example 1-169, N-{4-chloro-3-[4-(4-cyclopropylmethoxyphenyl)-6-hydroxy-1,3,5-triazin-2-yl]benzyl}-3,3,3-trifluoro-2-methyl-2-trifluoromethylpropionamide]
IC50 (human mPGES-1): 2 nM | 6-keto-PGF1α (%) [1]: 40.3% | PGD2 (%) [1]: 17% | PGE2 (%) [1]: 28.7% | PGF2α (%) [1]: 13.5% | TXB2 (%) [1]: 0.5%

CC(C)COc1ccc(-c2nc(O)nc(-c3cc(CNC(=O)C4(C(F)(F)F)CC4)ccc3Cl)n2)cc1 [Example 1-178, 1-trifluoromethylcyclopropanecarboxylic acid 4-chloro-3-[4-hydroxy-6-(4-isobutoxyphenyl)-1,3,5-triazin-2-yl]benzylamide]
IC50 (human mPGES-1): 1.4 nM | 6-keto-PGF1α (%) [1]: 36.6% | PGD2 (%) [1]: 20.1% | PGE2 (%) [1]: 30% | PGF2α (%) [1]: 13% | TXB2 (%) [1]: 0.3%

C[C@H](Oc1ccc(-c2nc(O)nc(-c3cc(CNC(=O)C(C)(C)C(F)(F)F)ccc3Cl)n2)cc1)C1CC1 [Example 1-184, N-(4-chloro-3-{4-[4-((S)-1-cyclopropylethoxy)phenyl]-6-hydroxy-1,3,5-triazin-2-yl}benzyl)-3,3,3-trifluoro-2,2-dimethylpropionamide]
IC50 (human mPGES-1): 1.9 nM | 6-keto-PGF1α (%) [1]: 21.2% | PGD2 (%) [1]: 10.7% | PGE2 (%) [1]: 57% | PGF2α (%) [1]: 10.3% | TXB2 (%) [1]: 0.8%

C[C@@H](Oc1ccc(-c2nc(O)nc(-c3cc(CNC(=O)C(C)(C)C(F)(F)F)ccc3Cl)n2)cc1)C1CC1 [Example 1-185, N-(4-chloro-3-{4-[4-((R)-1-cyclopropylethoxy)phenyl]-6-hydroxy-1,3,5-triazin-2-yl}benzyl)-3,3,3-trifluoro-2,2-dimethylpropionamide]
IC50 (human mPGES-1): 1.7 nM | 6-keto-PGF1α (%) [1]: 25.4% | PGD2 (%) [1]: 12.1% | PGE2 (%) [1]: 50% | PGF2α (%) [1]: 11% | TXB2 (%) [1]: 1.6%

Cc1cccc(COc2cccc(C(F)(F)F)c2-c2nc(O)nc(-c3ccc(C#Cc4ccccc4)cc3)n2)n1.Cl [Example 2-98, 4-[2-(6-methylpyridin-2-ylmethoxy)-6-trifluoromethylphenyl]-6-(4-phenylethynylphenyl)-1,3,5-triazin-2-ol hydrochloride]
IC50 (human mPGES-1): 3.7 nM | 6-keto-PGF1α (%) [1]: 27.3% | PGD2 (%) [1]: 20.1% | PGE2 (%) [1]: 37.8% | PGF2α (%) [1]: 14.8% | TXB2 (%) [1]: 0%
